Experimental findings from PMC6630699, “Synthesis and Cytotoxicity Evaluation of DOTA-Conjugates of Ursolic Acid” (Molecules, 2019) are described below.

The subject of series [1] is A2780 (ovarian carcinoma). Nature of the series: SRB cytotoxicity assay, A2780. Type of series: cell-based, human. The conditions noted are these: for EC50: Homo sapiens, A2780, 72 h, SRB assay, 72 h of treatment; for Selectivity index SI A2780: SI = EC50 (NIH 3T3)/EC50 (A2780). From the text: (§1) Due to cytotoxicity evaluation, the prepared UA-DOTA conjugates were screened in rhodamine B assays employing a series of human tumor cell lines and non-malignant mouse fibroblasts (NIH 3T3).
(§2) The cell lines used are human cancer cell lines: A2780 (ovarian carcinoma), HT29 (colon adenocarcinoma), MCF-7 (breast adenocarcinoma), A375 (melanoma), FaDu (pharynx squamous cell carcinoma) and non-malignant mouse fibroblasts NIH 3T3; all cell lines were obtained from the Department of Oncology (Martin-Luther-University Halle-Wittenberg). Cultures were maintained as monolayers in RPMI 1640 medium with L-glutamine (Capricorn Scientific GmbH, Ebsdorfergrund, Germany) supplemented with 10% heat inactivated fetal bovine serum (Sigma-Aldrich Chemie GmbH, Steinheim, Germany) and penicillin/streptomycin (Capricorn Scientific GmbH, Ebsdorfergrund, Germany) at 37 °C in a humidified atmosphere with 5% CO2.
(§3) The cytotoxicity of the compounds was evaluated using the sulforhodamine-B (Kiton-Red S, ABCR) micro culture colorimetric assay. Cells were seeded into 96-well plates on day 0 at appropriate cell densities to prevent confluence of the cells during the period of experiment. After 24 h, the cells were treated with six different concentrations (1, 3, 7, 12, 20, and 30 µM) minimum. The final concentration of DMSO/DMF never exceeded 0.5%, which was non-toxic to the cells. After a 72-h treatment, the supernatant medium from the 96-well plates was discarded, the cells were fixed with 10% trichloroacetic acid (TCA) and allowed to rest at 4 °C. After 24 h fixation, the cells were washed in a strip washer and dyed with SRB solution (100 µL, 0.4%, in 1% acetic acid) for about 20 min. After dying, the plates were washed four times with 1% acetic acid to remove the excess of the dye and allowed to air-dry overnight. Tris base solution (200 µL, 10 mM) was added to each well and absorbance was measured at λ = 570 nm using a 96 well plate reader (Tecan Spectra, Crailsheim, Germany). The EC50 values were averaged from three independent experiments performed each in triplicate calculated from semi logarithmic dose response curves applying a non-linear 4P Hills-slope equation (GraphPad Prism5; variables top and bottom were set to 100 and 0, respectively).
In general terms: In SRB staining, fixed cells bind dye roughly in proportion to their protein.

Series [2] deals with HT29 (colon adenocarcinoma). Nature of the series: SRB cytotoxicity assay, HT29. Type of series: cell-based, human. The conditions noted are these: for EC50: Homo sapiens, HT-29, SRB assay, 72 h of treatment; for Selectivity index SI HT29: SI = EC50 (NIH 3T3)/EC50 (HT29).
Text: as §1, §2, §3

Series [3] deals with MCF-7 (breast adenocarcinoma). Kind of series: SRB cytotoxicity assay, MCF-7. Type of series: cell-based, human. The conditions noted are these: for EC50: Homo sapiens, MCF7, SRB assay, 72 h of treatment; for Selectivity index SI MCF-7: SI = EC50 (NIH 3T3)/EC50 (MCF-7).
Text: as §1, §2, §3

Series [4] relates to non-malignant mouse fibroblasts NIH 3T3. Nature of the series: SRB cytotoxicity assay, NIH 3T3. It counts as cell-based. To be noted: NIH3T3, 72 h of treatment.
Text: as §1, §2, §3

Series [5] concerns human tumor cell lines. Kind of series: SRB cytotoxicity assay, statements over the whole cell line panel. It counts as cell-based. The conditions noted are these: summary over all tumor cell lines.
Text: as §1, §2, §3

Series [6] concerns A375 (melanoma). Kind of series: SRB cytotoxicity assay, A375. Type of series: cell-based, human. To be noted: for EC50: Homo sapiens, A-375, SRB assay, 72 h of treatment; for Selectivity index SI A375: SI = EC50 (NIH 3T3)/EC50 (A375).
Text: as §1, §2, §3

The subject of series [7] is FaDu (pharynx squamous cell carcinoma). Kind of series: SRB cytotoxicity assay, FaDu. It counts as cell-based, human. The conditions noted are these: for EC50: Homo sapiens, FaDu, SRB assay, 72 h of treatment; for Selectivity index SI FaDu: SI = EC50 (NIH 3T3)/EC50 (FaDu).
Text: as §1, §2, §3

Where a name gives a salt, the structure may show the parent alone.

What is called EC50 is the concentration needed to bring the measured effect to its halfway point. A low value points to greater potency. With `COc1cccc2c1C(=O)c1c(O)c3c(c(O)c1C2=O)C[C@@](O)(C(=O)CO)C[C@@H]3O[C@H]1C[C@H](N)[C@H](O)[C@H](C)O1` [DRC, doxorubicin hydrochloride, reference compound], in series [1], the EC50 worked out at 0.01 ± 0.01 µM and the “Selectivity index SI A2780” value is on record as 6.00. Also, in series [2], the EC50 is 0.9 ± 0.2 µM and the “Selectivity index SI HT29” value is on record as 0.07. Besides, in series [3], the EC50 was 1.1 ± 0.3 µM and the “Selectivity index SI MCF-7” value is recorded as 0.05. In series [4], it took 0.06 ± 0.03 µM to reach a half-maximal effect (EC50).

With `C[C@H]1[C@H](C)CC[C@]2(C(=O)O)CC[C@]3(C)C(=CC[C@@H]4[C@@]5(C)CC[C@H](O)C(C)(C)[C@@H]5CC[C@]43C)[C@H]12` [UA, Ursolic acid], in series [1], the 50% effective concentration (EC50) amounted to 11.7 ± 0.6 µM and the “Selectivity index SI A2780” value came to 1.12. In series [2], the EC50 is 10.6 ± 0.7 µM and the “Selectivity index SI HT29” value came out at 1.24. Also, in series [3], the EC50 is 12.7 ± 0.1 µM and the “Selectivity index SI MCF-7” value stood at 1.03. In series [4], this molecule displayed an EC50 of 13.1 ± 1.1 µM.

What is called melting point is the temperature of the solid-liquid transition. The molecule `CC(C)(C)OC(=O)CN1CCNCCN(CC(=O)OC(C)(C)C)CCN(CC(=O)OC(C)(C)C)CC1` [compound 6, Tri-tert-butyl 2,2′,2’’-(1,4,7,10-tetraazacyclododecane-1,4,7-triyl)triacetate] gave a melting point of 180 to 182 °C. Also, in series [1], the midpoint of the response, the EC50, lay at 10.5 ± 3 µM and the “Selectivity index SI A2780” value worked out at 1.65. In series [2], the EC50 stood at 8.7 ± 2.7 µM and the “Selectivity index SI HT29” value came to 1.99. This molecule came in with a concentration for a half-maximal effect (EC50) in series [5] of 10 to 14 µM. In series [3], the concentration for a half-maximal effect (EC50) came to 11.3 ± 2.3 µM and the “Selectivity index SI MCF-7” value is listed as 1.53. Moreover, in series [6], a half-maximal response (EC50) required 12.4 ± 2.7 µM and the “Selectivity index SI A375” value was 1.40. In series [4], this molecule came in with an EC50 of 17.3 ± 0.1 µM. In addition, in series [7], the concentration giving a half-maximal response (EC50) turned out to be 9.5 ± 0.9 µM and the “Selectivity index SI FaDu” value is listed as 1.82.

Turning to `O=C(CN1CCNCCN(CC(=O)OCc2ccccc2)CCN(CC(=O)OCc2ccccc2)CC1)OCc1ccccc1` [compound 7, Tribenzyl 2,2’,2’’-(1,4,7,10-tetraazacyclododecane-1,4,7-triyl)triacetate], the concentration for a half-maximal effect (EC50) was 3.8 ± 0.3 µM in series [1]; 2 ± 0.2 µM in series [2]; < 5 µM in series [5]; 4.1 ± 0.5 µM in series [3]; 4.7 ± 0.3 µM in series [6]; 4.5 ± 0.3 µM in series [4]. In series [7], a half-maximal response (EC50) required 3.9 ± 0.7 µM. In addition, in series [1], the “Selectivity index SI A2780” value amounted to 1.18. In series [2], the “Selectivity index SI HT29” value is 2.25. Besides, the “Selectivity index SI MCF-7” value in series [3] is 1.10. In series [6], the “Selectivity index SI A375” value was 0.96. Also, in series [7], the “Selectivity index SI FaDu” value is 1.15.

In the case of `CC(=O)O[C@H]1CC[C@]2(C)[C@H]3CC=C4[C@@H]5[C@@H](C)[C@H](C)CC[C@]5(C(=O)NCCN5CCN(C(=O)CN6CCN(CC(=O)OCc7ccccc7)CCN(CC(=O)OCc7ccccc7)CCN(CC(=O)OCc7ccccc7)CC6)CC5)CC[C@@]4(C)[C@]3(C)CC[C@H]2C1(C)C` [compound 13, Tribenzyl 2,2’,2’’-[10-[2-[4-[2-(3β-acetyloxy-urs-12-en-28-oylamino)ethyl]piperazin-1-yl]-2-oxoethyl]-1,4,7,10-tetraazacyclododecane-1,4,7-triyl]triacetate], the melting point lay in the range of 142 to 146 °C. In addition, in series [1], the EC50 was 2.1 ± 0.4 µM and the “Selectivity index SI A2780” value was 1.71. For the same molecule, in series [2], the EC50 was 4 ± 0.4 µM and the “Selectivity index SI HT29” value was 0.90. The EC50 in series [5] was < 6 µM. Besides, in series [3], the midpoint of the response, the EC50, lay at 3.3 ± 0.2 µM and the “Selectivity index SI MCF-7” value came to 1.09. In addition, the 50% effective concentration (EC50) in series [4] came to 3.6 ± 0.5 µM. Besides, in series [7], it took 6 ± 0.1 µM to reach a half-maximal effect (EC50) and the “Selectivity index SI FaDu” value is recorded as 0.60.

Take `CC(=O)O[C@H]1CC[C@]2(C)[C@H]3CC=C4[C@@H]5[C@@H](C)[C@H](C)CC[C@]5(C(=O)NCCN5CCN(C(=O)CN6CCN(CC(=O)O)CCN(CC(=O)O)CCN(CC(=O)O)CC6)CC5)CC[C@@]4(C)[C@]3(C)CC[C@H]2C1(C)C` [compound 15, 2,2’,2’’-[10-[2-[4-[2-(3β-Acetyloxy-urs-12-en-28-oylamino)ethyl]piperazin-1-yl]-2-oxoethyl]-1,4,7,10-tetraazacyclododecane-1,4,7-triyl]triacetic acid]: the melting point is 206 to 210 °C (dec.). Besides, the concentration giving a half-maximal response (EC50) in series [1] is > 60 µM. The concentration giving a half-maximal response (EC50) in series [2] is > 60 µM. For the same molecule, the 50% effective concentration (EC50) in series [5] was > 60 µM. For the same molecule, the EC50 in series [3] is > 60 µM. Also, in series [6], the EC50 is > 60 µM. Further, the EC50 in series [4] is > 60 µM. Further, the EC50 in series [7] is > 60 µM.

`C[C@H]1[C@H](C)CC[C@]2(C(=O)NCCNC(=O)CN3CCN(CC(=O)OC(C)(C)C)CCN(CC(=O)OC(C)(C)C)CCN(CC(=O)OC(C)(C)C)CC3)CC[C@]3(C)C(=CC[C@@H]4[C@@]5(C)CC[C@H](O)C(C)(C)[C@@H]5CC[C@]43C)[C@H]12` [compound 29, Tri-tert-butyl 2,2’,2’’-[10-[2-[2-(3β-hydroxy-urs-12-en-28-oylamino)ethyl]amino-2-oxoethyl]-1,4,7,10-tetraazacyclododecane-1,4,7-triyl]triacetate]: in series [1], a half-maximal response (EC50) required 1.6 ± 0.5 µM and the “Selectivity index SI A2780” value was found to be 1.44. In series [2], the EC50 turned out to be 1.7 ± 0.4 µM and the “Selectivity index SI HT29” value amounted to 1.35. In series [6], the response was half-maximal at 2 ± 0.3 µM (EC50) and the “Selectivity index SI A375” value came to 1.15. For the same molecule, in series [4], the half-maximal effective concentration (EC50) was found to be 2.3 ± 0.7 µM. Moreover, in series [7], a half-maximal effect (EC50) was put at 2.9 ± 0.4 µM and the “Selectivity index SI FaDu” value stood at 0.79.
